Data from the supplement of paper PMC13380429.

Columns and labels:
Conditions in all cases: 72 h
Caco-2 [1] = assay: cell viability relative to DMSO; higher = less toxic
Calu-3 [2] = assay: as above
HepG2 [3] = assay: as above
U2OS [4] = assay: as above
Vero E6 [5] = assay: as above
Caco-2 [6] = assay: relative viability EC50 (midpoint between 100% and the lowest measured viability); higher = less toxic
Calu-3 [7] = assay: as above
HepG2 [8] = assay: as above
U2OS [9] = assay: as above
Vero E6 [10] = assay: as above
Caco-2 [11] = assay: drug sensitivity score (DSS) for viability; higher = more toxic; extreme values may be limits of the assay
Calu-3 [12] = assay: as above
HepG2 [13] = assay: as above
U2OS [14] = assay: as above
Vero E6 [15] = assay: as above

SMILES | cell viability (Caco-2 [1]; 1 nM) [%] | cell viability (Caco-2 [1]; 10 nM) [%] | cell viability (Caco-2 [1]; 100 nM) [%] | cell viability (Caco-2 [1]; 1000 nM) [%] | cell viability (Caco-2 [1]; 10000 nM) [%] | cell viability (Calu-3 [2]; 1 nM) [%] | cell viability (Calu-3 [2]; 10 nM) [%] | cell viability (Calu-3 [2]; 100 nM) [%] | cell viability (Calu-3 [2]; 1000 nM) [%] | cell viability (Calu-3 [2]; 10000 nM) [%] | cell viability (HepG2 [3]; 1 nM) [%] | cell viability (HepG2 [3]; 10 nM) [%] | cell viability (HepG2 [3]; 100 nM) [%] | cell viability (HepG2 [3]; 1000 nM) [%] | cell viability (HepG2 [3]; 10000 nM) [%] | cell viability (U2OS [4]; 1 nM) [%] | cell viability (U2OS [4]; 10 nM) [%] | cell viability (U2OS [4]; 100 nM) [%] | cell viability (U2OS [4]; 1000 nM) [%] | cell viability (U2OS [4]; 10000 nM) [%] | cell viability (Vero E6 [5]; 1 nM) [%] | cell viability (Vero E6 [5]; 10 nM) [%] | cell viability (Vero E6 [5]; 100 nM) [%] | cell viability (Vero E6 [5]; 1000 nM) [%] | cell viability (Vero E6 [5]; 10000 nM) [%] | relative viability EC50 (Caco-2 [6]) [µM] | relative viability EC50 (Calu-3 [7]) [µM] | relative viability EC50 (HepG2 [8]) [µM] | relative viability EC50 (U2OS [9]) [µM] | relative viability EC50 (Vero E6 [10]) [µM] | drug sensitivity score (Caco-2 [11]) | drug sensitivity score (Calu-3 [12]) | drug sensitivity score (HepG2 [13]) | drug sensitivity score (U2OS [14]) | drug sensitivity score (Vero E6 [15])
CC[C@H](CC[C@@H](C)[C@H]1CC[C@H]2[C@@H]3CC=C4C[C@@H](O[C@@H]5O[C@H](CO)[C@@H](O)[C@H](O)[C@H]5O)CC[C@]4(C)[C@H]3CC[C@]12C)C(C)C [daucosterol] | 88.7 | 99.4 | 107 | 102 | 100 | 98.4 | 106 | 99.3 | 108 | 110 | 92.5 | 96.2 | 102 | 101 | 106 | 97.2 | 98.1 | 101 | 100 | 103 | 95.9 | 100 | 94.5 | 90.5 | 102 | > 10 | > 10 | > 10 | > 10 | > 10 | 0 | 0 | 0 | 0 | 0
C[C@H]1O[C@@H](O[C@H]2CC[C@@]3(C)[C@H](CC[C@@H]4[C@@H]3C[C@@H](O)[C@]3(C)[C@@H](C5=CC(=O)OC5)CC[C@]43O)C2)C[C@H](O)[C@@H]1O[C@H]1C[C@H](O)[C@H](O[C@H]2C[C@H](O)[C@H](O[C@@H]3O[C@H](CO)[C@@H](O)[C@H](O)[C@H]3O)[C@@H](C)O2)[C@@H](C)O1 [deslanoside] | 98.3 | 95 | 69.8 | 18.6 | 20 | 102 | 97.2 | 94.2 | 28.1 | 19.1 | 89.4 | 92.9 | 76.2 | 25.5 | 6.7 | 101 | 98.9 | 93.2 | 5.9 | 10.9 | 96.7 | 94.3 | 14.8 | 1.5 | 1 | 0.131 | 0.356 | 0.266 | 0.258 | 0.0401 | 18.5 | 14 | 16.7 | 18 | 28.7
CC(C)[C@@H](C)/C=C/[C@@H](C)[C@H]1CC[C@H]2/C(=C/C=C3\C[C@@H](O)CC[C@@H]3C)CCC[C@]12C [dihydrotachysterol] | 108 | 96 | 100 | 104 | 103 | 97.4 | 99.7 | 97.7 | 99.6 | 97.7 | 92.8 | 94.3 | 95.8 | 93.2 | 106 | 104 | 93.1 | 101 | 99.3 | 100 | 101 | 100 | 98.1 | 102 | 110 | > 10 | > 10 | > 10 | > 10 | > 10 | 0 | 0 | 0 | 0 | 0
CN(C)CC/C=C1\c2ccccc2CSc2ccccc21 [dosulepin] | 94.1 | 108 | 100 | 117 | 107 | 90.7 | 104 | 101 | 89.3 | 87 | 111 | 93.5 | 94.1 | 92.6 | 79.9 | 90.7 | 97.5 | 96.4 | 101 | 96.6 | 93.4 | 97.3 | 104 | 96.5 | 92.7 | > 10 | > 10 | > 10 | > 10 | > 10 | 0 | 0.6 | 0.9 | 0 | 0
NC(N)=Nc1nc(CSCCN/C=N/S(=O)(=O)c2ccc(Br)cc2)cs1 [ebrotidine] | 97.8 | 102 | 95 | 99.5 | 99.9 | 96 | 101 | 94.8 | 101 | 93.3 | 98.2 | 97.6 | 112 | 93.4 | 86.5 | 100 | 103 | 98.6 | 106 | 98.9 | 88.7 | 91.8 | 97.7 | 90.6 | 105 | > 10 | > 10 | > 10 | > 10 | > 10 | 0 | 0 | 0.5 | 0 | 0
CCc1cn([C@H]2C[C@H](O)[C@@H](CO)O2)c(=O)[nH]c1=O [edoxudine] | 89.6 | 93.6 | 99.9 | 88.2 | 99.5 | 102 | 95.6 | 101 | 97 | 99.1 | 93.8 | 88.3 | 98.6 | 87.4 | 85.8 | 102 | 101 | 98.8 | 98.8 | 95.3 | 102 | 101 | 98 | 96 | 92.4 | > 10 | > 10 | > 10 | > 10 | > 10 | 0 | 0 | 0 | 0 | 0
COc1ccc(CN(C(=O)[C@@H](N)Cc2c(C)cc(C(N)=O)cc2C)[C@@H](C)c2ncc(-c3ccccc3)[nH]2)cc1C(=O)O [eluxadoline] | 94.1 | 98.2 | 97.6 | 98.5 | 113 | 96.6 | 105 | 95.1 | 118 | 101 | 99.6 | 95.4 | 97.1 | 99.9 | 105 | 91.5 | 98.3 | 96.1 | 100 | 98 | 104 | 101 | 94.5 | 98.2 | 103 | > 10 | > 10 | > 10 | > 10 | > 10 | 0 | 0 | 0 | 0 | 0
